For the data set the following is noted: rat; liver microsomes; pH 7.4; 15.0 min; 1.0 µM.
As a reminder, the half-life is the time needed for the level to fall by half in the phase considered. `COc1cccc(C(=O)NCCSc2c(-c3ccc(F)cc3)[nH]c3ccccc23)c1OC` gave a half-life of 1.26 min. The molecule `COC(=O)CNC(=O)c1nc(-c2ccc(Cl)cc2Cl)c2cnccn12` registered a half-life of 3.71 min.

`C/C(=N\NC(N)=S)C1=CCC2C3CC[C@H]4CC(O)CC[C@]4(C)C3CC[C@]12C` (stereo partly drawn) yielded a half-life greater than 30 min.

`Cc1ccc(S(=O)(=O)Nc2cc(Cl)ccc2C(=O)Nc2nc(-c3ccccc3)cs2)cc1` displayed a half-life of 7.65 min. `Cc1ccc(C(=O)Nc2ccc3oc(-c4cccnc4)nc3c2)cc1[N+](=O)[O-]` yielded a half-life of 13.2 min. In turn, `N#Cc1cccc(-c2csc(N3CCC(C(N)=O)CC3)n2)c1` gave a half-life of 1.74 min.

Regarding `CN(C)c1cccc(-c2cnc(N3CCC(C(N)=O)CC3)nc2)c1`, the half-life amounted to 16.8 min.

In the case of `COc1cccc(NS(=O)(=O)c2ccc(C)cc2)c1C(=O)Nc1nc(-c2ccccc2)cs1`, the half-life turned out to be 3.7 min.

`CCCCN(CC)CCNC(=O)c1cc2c(-c3ccc(Cl)cc3)nn(C)c2s1` showed a half-life of 3.76 min.

In the case of `Cc1cccc(-c2[nH]c(C(C)(C)C)nc2-c2ccc3nccnc3c2)n1`, the half-life was greater than 30 min. Molecule `c1ccc2[nH]c(Nc3nc(-c4ccncc4)nc4ccccc34)nc2c1` registered a half-life of 13 min. `CC(=O)OC[C@]12CCC(C)=C[C@H]1O[C@@H]1[C@H](O)[C@@H](OC(C)=O)[C@@]2(C)[C@]12CO2` yielded a half-life greater than 30 min. Consider `CC(=O)c1c(C)[nH]c(C(=O)Nc2cccc(S(=O)(=O)N3CCOCC3)c2)c1C`, for which the half-life came to 17 min.

Molecule `CCCNC(=O)Nc1ccc(Oc2ncnc3cc(OC)c(OC)cc23)cc1Cl` yielded a half-life greater than 30 min. The molecule `CCc1ccc(-n2c(=O)c3cccnc3n2CC(=O)Nc2cc(OC)ccc2OC)cc1` had a half-life of 1 min.

Molecule `Cc1cccc(S(=O)(=O)c2cn(Cc3ccccc3)c3cc(N4CCCC(C)C4)c(F)cc3c2=O)c1` (stereo not drawn) returned a half-life of 2.01 min.

On to `Cc1ccccc1C(=O)n1ccc2cc(-c3nc(NC(=O)Cc4ccc5c(c4)OCO5)sc3C)ccc21`, for which the half-life was greater than 30 min. Molecule `CCN(CC)CCOc1ccc2c(=O)c3ccc(Cl)cc3n(CCN(CC)CC)c2c1` displayed a half-life of 7.9 min.

`CN(C)C(=O)c1nc(-c2ccc(S(C)(=O)=O)cc2)c2cnccn12` registered a half-life greater than 30 min. `COc1ccccc1N1CCN(C2CCCCC2NS(=O)(=O)c2ccccc2)CC1` (stereo not drawn) registered a half-life of 1.69 min. `Cc1c([C@@H](C)C2NC[C@H](C)C[C@@H]2O)ccc2c1C[C@@H]1[C@H]2CC=C2C[C@@H](O)CC[C@@]21C` (stereo partly drawn) registered a half-life greater than 30 min.

On to `CCc1ccc(NC(=O)c2[nH]c(C)c(C(C)=O)c2C)cc1[S+](=O)([O-])Nc1ccccc1C#N`, for which the half-life was greater than 30 min. Take `CC1=C(C(=O)NCc2ccccc2)C(c2ccccc2Br)N=C(Nc2nc3ccccc3o2)N1` (stereo not drawn): the half-life came to 7 min. Molecule `Cc1ccc(S(=O)(=O)Nc2nc3ccc(C)cc3nc2Nc2ccc3c(c2)OCO3)cc1` came in with a half-life greater than 30 min. `Fc1ccc(-c2ccc(Nc3nc(-c4ccncc4)nc4ccccc34)cc2F)c(Cl)c1` registered a half-life of 25 min. `O=S(=O)(Nc1nccs1)c1ccc(NCc2ccccc2)cc1` came in with a half-life of 10 min.

`CCOc1ccccc1N(CC(=O)Nc1cc(OC)ccc1OC)S(=O)(=O)c1ccccc1` came in with a half-life of 1.38 min. Turning to `Cc1ccc(S(=O)(=O)N2CCCc3cc(NS(=O)(=O)c4ccccc4)ccc32)cc1`, the half-life was 1 min.

`Cc1nc(NC2CCCCC2)c2nc(-c3ccccc3)n(CCN(C)C)c2n1` showed a half-life of 3.74 min. Next, `CC1=C(C(=O)Nc2nncs2)C(c2[nH]ncc2Cl)N=C(Nc2nc3ccccc3o2)N1` (stereo not drawn): greater than 30 min; `O=C(Nc1nc(-c2ccccc2)cs1)c1ccccc1[N+](=O)[O-]`: 17 min; `COc1ccc(CN2CCN(C(=O)c3cc4c(s3)CCC4)CC2)cc1`: 1.9 min. Next, `CC1Oc2cc3c(-c4c(O)cc(O)c5c(O)c6c(cc45)OC(C)C(C)C6=O)c(O)cc(O)c3c(O)c2C(=O)C1C` (stereo not drawn): greater than 30 min; `COc1ccc(CNC(=O)CCCn2nc(C)c3c(C)n(-c4ccc(C)cc4)nc3c2=O)cc1OC`: 4.18 min; `COc1ccccc1C(=O)Nc1ccccc1C(=O)Nc1cccc(SC(F)(F)F)c1`: 18 min. `CC1(C)CC2CC(C)(CN2S(=O)(=O)c2ccc(C(=O)Nc3cccc(S(=O)(=O)N4CCOCC4)c3)cc2)C1` (stereo not drawn) gave a half-life of 2.8 min. `Oc1ccc(-c2nc(C3CC3)nc3c2CCN(CC2CCCCC2)CC3)cc1` showed a half-life of 5.28 min. The molecule `COc1cccc(CNc2ccc(S(=O)(=O)Nc3nccs3)cc2)c1O` yielded a half-life greater than 30 min. The result for `Cc1cc(-c2nnc3n2CCCCC3)c(C)n1-c1ccc(Br)cc1` reads 2.2 min. Regarding `CCOC(=O)c1ccc(N2C(=O)c3n[nH]c(-c4cccs4)c3C2c2ccc(OCC)cc2)cc1` (stereo not drawn), the half-life came out at 5.72 min. The molecule `c1ccc(Nc2cc3c(cn2)CN(Cc2c[nH]c4ccccc24)CCN3)cc1` gave a half-life of 7.47 min. In the case of `CC(C)CN(C[C@@H](O)[C@H](Cc1ccccc1)NC(=O)O[C@@H]1CO[C@H]2OCC[C@H]21)S(=O)(=O)c1ccc(N)cc1`, the half-life amounted to 13.8 min. In turn, `N[C@@H](Cc1cc(Br)c(O)c(Br)c1)C(=O)O` came in with a half-life greater than 30 min. Take `Brc1ccc(-c2csc(N3CCOCC3)n2)cc1`: the half-life came to 2.48 min. The molecule `O=C(Nc1ccc(S(=O)(=O)Nc2nc(-c3ccccc3)cs2)cc1)c1ccc2ccccc2c1` displayed a half-life greater than 30 min. Take `COc1ccc(CN2C(=O)[C@@H]3C[C@@H](CN3Cc3cccs3)Oc3ccccc32)cc1`: the half-life came to 1.2 min. `COc1cc(-c2c(C#N)c(N)nc3c2c(C)nn3-c2ccc(F)cc2)ccc1O` came in with a half-life greater than 30 min. Take `CCn1c(C)c(C(C)=O)c(C)c1C(=O)Nc1cccc([S+](=O)([O-])N(C)C)c1`: the half-life is 6.5 min. Take `COc1ccc(-n2nc(C3CCCN(C(=O)Nc4ccccc4)C3)[nH]c2=O)cc1` (stereo not drawn): the half-life was greater than 30 min. `Cc1cc(Cl)ccc1COc1ccnn1-c1cc(C(=O)O)ccn1` displayed a half-life greater than 30 min.

As for `COC(=O)c1sccc1NC(=O)c1sccc1C`, the half-life came out at 1.46 min. For `C[C@@]12O[C@@H](C[C@]1(O)CO)n1c3ccccc3c3c4c(c5c6ccccc6n2c5c31)CNC4=O`, the half-life is greater than 30 min.

`NC(=O)C1CCN(c2nc(-c3ccccc3N)cs2)CC1` showed a half-life of 25.3 min.

With `Cc1ccc(CNc2ccccc2C(=O)Nc2nc(-c3ccccc3)cs2)cc1`, the half-life is greater than 30 min.

The molecule `CCN(c1ccccc1)S(=O)(=O)c1c(C)nc2scc(C)n2c1=O` registered a half-life of 1.7 min. Next, `COc1ccc(C(=O)Nc2nc(-c3ccccc3)cs2)c(NS(=O)(=O)c2ccc(C)cc2)c1`: 6.5 min. Regarding `CC(=O)c1c(C)[nH]c(C(=O)Nc2cccc([S+](=O)([O-])Nc3c(C)cccc3C)c2)c1C`, the half-life turned out to be 5 min. The molecule `COc1cc2c(cc1NC(=O)COc1ccc(Cl)cc1)oc1ccccc12` had a half-life of 8.77 min. `CC[C@@H](CO)NC(=O)[C@@H]1C=C2c3cccc4c3c(cn4C)C[C@H]2N(C)C1` returned a half-life greater than 30 min. The result for `Brc1ccccc1-c1nc(NCc2ccc(-c3cccnc3)cc2)c2ccccc2n1` reads 6.55 min.

`CC(C)COc1ccc(-c2csc(N3CCC(C(N)=O)CC3)n2)cc1`: the half-life worked out at 7.23 min. As to `COc1cc(/C=C2\C(=O)Nc3ccccc32)ccc1O`, the half-life amounted to 12 min.

`C#CCNC(=O)c1nc(-c2ccc(Cl)nc2)c2ccccn12` came in with a half-life of 24 min. Regarding `COc1ccc(-c2ccc3nc(-c4ccc(SC)cc4)oc3c2)c(OC)c1OC`, the half-life came to 1.8 min. Take `Fc1ccc(Nc2nc(-c3ccncc3)nc3ccccc23)cc1F`: the half-life is 9.82 min. With `COc1ccc(C(=O)NC2CCN(c3cnn(CC4CC4)c(=O)c3)CC2)c(OC)n1`, the half-life stood at 13.9 min. The molecule `COc1ccc(CNc2ccc(S(=O)(=O)Nc3nccs3)cc2)c(O)c1` returned a half-life of 3.9 min. `Fc1ccc(CNc2nc(-c3ccccc3C(F)(F)F)nc3ccccc23)cc1`: the half-life amounted to 19.8 min. The molecule `COCCCNC(=O)c1cc2cc(S(=O)(=O)N(C)C)ccc2n1C` came in with a half-life of 25 min. Molecule `CC(C)Oc1ccc(C(=O)Nc2ccc3c(c2)CCCN3C(=O)c2cccs2)cc1` showed a half-life of 4.8 min. Take `O=C(c1ccc2ncccc2c1)N1CCc2c(nc3cc[nH]n3c2=O)C1`: the half-life is greater than 30 min.

Take `Cc1cn2c(N)c(Cl)cc(C(=O)NCC3CCN(CC(C)C)CC3)c2n1`: the half-life is greater than 30 min.

`CN(C)c1cccc(-c2cnc(N3CCC(c4ncc[nH]4)CC3)s2)c1` gave a half-life of 4.63 min.

`COc1ccc(CCNC(=O)c2cc3c(=O)n4ccccc4nc3n(CCCN3CCOCC3)c2=N)cc1` came in with a half-life of 8.26 min.

Molecule `COc1ccc(Nc2nc(-c3ccncc3)nc3ccccc23)cc1F` yielded a half-life of 9.7 min. `CCOc1ccc(CCNC(=O)c2cc3ccccc3n2Cc2cccc(C)c2)cc1OCC` returned a half-life of 1.6 min. Regarding `COc1ccc(OC)c(CN2CCNc3cc(Nc4ccccc4)ncc3C2)c1`, the half-life was 2.23 min.

As to `NC(=O)C1CCN(c2nc(-c3ccccc3-c3ccccc3)cs2)CC1`, the half-life came to 2.45 min. For `Fc1cccc(-c2ccc(Nc3nc(-c4ccncc4)nc4ccccc34)cc2F)c1`, the half-life is greater than 30 min. Molecule `O=C(Nc1ccc(Nc2ccncc2)cc1)c1ccc(Nc2ccnc3ccc([N+](=O)[O-])cc23)cc1[N+](=O)[O-]` registered a half-life greater than 30 min. Molecule `CCN(CC)CCCNC(=O)c1oc2c(c1C)-c1nn(Cc3ccc(Cl)cc3)cc1CC2` registered a half-life greater than 30 min. `CN(C)C(=O)c1cc2cnc(Nc3ccc(N4CCNCC4)cn3)nc2n1C1CCCC1` had a half-life greater than 30 min. In the case of `COc1ccc(-n2nc(C)c([C@@H]3C=C[C@@H](NCc4cccc(Cl)c4)C3)c2C)cc1`, the half-life is 4.19 min. Consider `CC(C)CC(=O)Nc1n[nH]c2c1CN(C(=O)C1CCN(C)CC1)C2(C)C`, for which the half-life is greater than 30 min. `Fc1cc(Nc2nc(-c3ccncc3)nc3ccccc23)ccc1C(F)(F)F` showed a half-life of 17 min. Consider `CCN1C(=O)c2ccccc2[S@](=O)c2ccc(C(=O)N[C@H](C)c3ccc4ccccc4c3)cc21`, for which the half-life came out at 5.2 min. `CC(=O)c1ccc(-c2csc(N3CCC(C(N)=O)CC3)n2)cc1` returned a half-life of 4.4 min. As for `Cc1ccc(C)c(NC2=C(c3ccc(C(F)(F)F)cc3)C(=O)c3ccccc32)c1`, the half-life was 9.11 min.

The values above are taken from PubChem BioAssay AID1508591.
